Experimental data from patent publication US20180311356A1, “METHOD TO INHIBIT ENDOTHELIAL-TO-MESENCHYMAL TRANSITION” (THE CHILDREN'S MEDICAL CENTER CORPORATION, priority 2015, published 2018).

Columns and labels:
[1] = tested on: TGF-β; conditions: cited from earlier work
[2] = tested on: mitral VEC; assay: EndMT assay with qPCR in TGFβ1-treated mitral VEC clones; format: cell-based, Ovine; conditions: for NFATc1 mRNA / αSMA, Slug, MMP-2, collagen 1, collagen 3, TGFβ1, TGFβ2 and TGFβ3 mRNA levels: inhibitor 0.5 μM during the 4 day TGFβ1 treatment, mitral VEC clones
Description: (§1) Ovine mitral VEC and CAEC were plated at 10,000 cells/cm^2 on gelatin-coated dishes. After 24 hours, EBM-B was replaced with fresh EBM-B containing 1 ng/ml human TGFβ1 (R&D Systems, MN, USA). Cells were harvested with Liberase ([…]) 96 hours later, and used for flow cytometry. Cells were analyzed simultaneously for VE-cadherin, α-SMA and CD45 by flow cytometry as described above.
(§2) Total cellular RNA was extracted from mitral VEC clones (C5, D1, E5, E10 and E10-2) and CAEC (n=2) with an RNeasy Micro extraction kit (Qiagen, Valencia, Calif., #74004). Reverse transcriptase reactions were performed using an iScript cDNA Synthesis Kit (Bio-Rad, CA, USA #170-8890). qPCR was performed using Kapa Sybr Fast ABI Prism 2×qPCR Master Mix (KAPA BioSystems, MA, USA # KK4604). Amplification was carried out in an ABI 7500 (Applied Biosystems, Foster City, Calif.). A standard curve for each gene was generated to determine amplification efficiency. RPS9 was used as housekeeping gene expression reference. Fold increases in gene expression were calculated according to 2 delta Ct method^28,29, with each amplification reaction performed in triplicate.

[3] = tested on: carotid artery endothelial cells (CAEC); assay: EndMT assay with qPCR in TGFβ1-treated CAEC; format: cell-based, Ovine; conditions: for EndMT and fibrosis marker mRNA in CAEC: presence or absence of inhibitor
Description: as §1, §2

[4] = tested on: mitral VEC; assay: Cellular migration assay (Transwell), mitral VEC clones; format: cell-based, Ovine; conditions: for EndMT-increased migration towards serum and bFGF: TGFβ-treated mitral VEC clones (n=3), inhibitor 1.0 μM 30 min before and during 6 hour assay
Description: (§3) The lower chambers contained 0.1% BSA/EBM-2 media alone or EBM with serum and basic FGF as a chemoattractants. Cells were allowed to migrate for 6 hours at 37° C. (FIG. 6) Cells that migrated through the pores were fixed with methanol and stained with Eosin-Y, Azure A and Methylene Blue for visualization and quantification using Three Step Stain Set (VWR, PA, USA #48218-567).

[5] = tested on: carotid artery endothelial cells (CAEC); assay: Cellular migration assay (Transwell), CAEC; format: cell-based, Ovine; conditions: 6 hour assay; for Migration of CAEC, response to inhibitor: control and TGFβ1-treated CAEC, inhibitor 1.0 μM
Description: as §3

[6] = tested on: early stage diffuse cutaneous systemic sclerosis; conditions: cited from earlier work
[7] = tested on: mitral VEC; assay: EndMT assay with flow cytometry, mitral VEC clones; format: cell-based, Ovine
Description: (§4) Ovine MVs were minced and digested for 30 minutes at 37° C. with Liberase (Roche Diagnostics, IN, USA, #5401119001), a blend of purified collagenases I and II. Isolated cells were fixed using Flow Cytometry Fixation Buffer (R&D Systems, MN, USA, #FC004) and labeled in Flow Cytometry Permeabilization/Wash Buffer I (R&D Systems, MN, USA, #FC005) for 45 minutes (100,000 cells/100 μl Buffer I). Murine anti-human CD45-FITC or -APC (1:50; AbD Serotec, NC, USA, # MCA2220F and #559864), VE-cadherin-PE or -FITC (1:100; R&D Systems, MN, USA, # FAB9381P and AbD Serotec, NC, USA, # AHP628F), and α-smooth muscle actin (αSMA)-APC or -PE (1:100; R&D Systems, MN, USA, # IC1420P and # IC1420A) were used.
as §1

[8] = tested on: carotid artery endothelial cells (CAEC); assay: EndMT assay with flow cytometry, CAEC; format: cell-based, Ovine; conditions: TGFβ-treated and non-treated CAECs
Description: as §4, §1

[9] = molecular target: T1, TGF-beta2 (Homo sapiens, UniProt P61812); conditions: cited from earlier work
T1 sequence (P61812 303-414 limits assumed): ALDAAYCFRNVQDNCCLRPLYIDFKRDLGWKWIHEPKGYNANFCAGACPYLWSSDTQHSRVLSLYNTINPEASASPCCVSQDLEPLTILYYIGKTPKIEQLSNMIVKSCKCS

[10] = molecular target: T2, TGF-beta3 (Homo sapiens, UniProt P10600); conditions: cited from earlier work
T2 sequence (P10600 301-412 limits assumed): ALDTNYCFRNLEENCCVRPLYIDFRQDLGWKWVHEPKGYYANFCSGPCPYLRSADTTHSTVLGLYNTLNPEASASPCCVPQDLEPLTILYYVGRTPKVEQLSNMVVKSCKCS

[11] = tested on: scarring after glaucoma surgery; conditions: rabbits; cited from earlier work
[12] = tested on: scar formation; conditions: first clinical trials; intractable glaucoma patients, trabeculectomy; cited from earlier work
[13] = qPCR, listed as CD45 phosphatase inhibitor
[14] = listed as CD45 phosphatase inhibitor

Question: For `Cc1ccc(=O)n(-c2ccccc2)c1` [Pirfenidone, 5-methyl-1-phenyl-2(1H)-pyridone], which “TGF-β promoter activity, TGF-β protein secretion, TGF-β-induced Smad2 phosphorylation and generation of reactive oxygen species” value [1] is on record?
Answer: reduces

Question: With `CC(C)(C)C(=O)Nc1ccc2c(c1)C(=O)C(=O)c1ccccc1-2` [CD45 PTPase inhibitor, N-(9,10-dioxo-9,10-dihydro-phenanthren-2-yl)-2,2-dimethyl propionamide] as the molecule, how does the “NFATc1 mRNA” value ([2]; qPCR) read?
Answer: restored

Question: And the “αSMA, Slug, MMP-2, collagen 1, collagen 3, TGFβ1, TGFβ2 and TGFβ3 mRNA levels” value ([2]; qPCR)?
Answer: significantly reduced

Question: And the “NFATc1 mRNA” value [2, 13]?
Answer: blocks the decrease

Question: And the “αSMA, Slug, MMP-2, collagen 1, collagen 3, TGFβ1, TGFβ2 and TGFβ3 mRNA levels” value [2, 13]?
Answer: reduces

Question: What about the “induction of 7 EndMT/fibrosis markers (α-SMA, Slug, MMP2, NFATc1, TGFβ2, collagen 1 and collagen 3)” value ([2]; summary statement) of the same molecule?
Answer: blocks

Question: And the “EndMT and fibrosis marker mRNA in CAEC” value [3]?
Answer: no changes

Question: And the “EndMT and fibrosis marker mRNA in CAEC” value [3, 14]?
Answer: no effect

Question: And the “EndMT-increased migration towards serum and bFGF” value [4]?
Answer: significantly inhibited

Question: What about the “EndMT-increased migration towards serum and bFGF” value [4, 14] of the same molecule?
Answer: specifically blocks

Question: And the “Migration of CAEC, response to inhibitor” value [5]?
Answer: no response

Question: And the “Migration of CAEC, response to inhibitor” value [5, 14]?
Answer: no effect

Question: For CAT-192: a TGF-β1 neutralizing antibody, which adverse events ([6]; in vivo) is on record?
Answer: more adverse events

Question: What about the “effect on early stage diffuse cutaneous systemic sclerosis” value ([6]; phase I/II trial NCT00043706) of the same molecule?
Answer: did not show effect

Question: Which “Collagen 1, collagen 3, TGFβ1, TGFβ2 and TGFβ3 mRNA transcripts” value ([2]; TGFβ1-treated mitral VEC clones, qPCR) does the source give for “TGFβ1: human TGFβ1 (R&D Systems), used at 1 ng/ml to induce EndMT” here?
Answer: increased

Question: And the “Slug, MMP2 and NFATc1 mRNA” value ([2]; TGFβ1-treated mitral VEC, qPCR)?
Answer: modulated as expected

Question: What about the “CD45 and αSMA mRNA” value ([2]; five mitral VEC clones, TGFβ1 4 days, qPCR) of the same molecule?
Answer: significant increases

Question: And the “CD45, VE-cadherin or αSMA mRNA levels in CAEC” value [3]?
Answer: No changes

Question: And the “migration towards serum and bFGF after TGFβ treatment” value ([4]; mitral VEC clones (n=3), TGFβ1 4 days, 6 hour assay)?
Answer: significantly increased

Question: What about the “migration of CAEC after TGFβ treatment” value ([5]; CAEC) of the same molecule?
Answer: no increase

Question: What about the “α-SMA, flow cytometry” value ([7]; TGFβ1-treated mitral VEC clones) of the same molecule?
Answer: significantly increased

Question: What about the “CD11b and CD14 expression, flow cytometry” value ([7]; TGFβ1-treated mitral VEC, data not shown) of the same molecule?
Answer: No expression was detected

Question: What about the “cells positive for CD45” value ([7]; four additional mitral VEC clones treated with TGFβ1 1 ng/ml 96 hours) of the same molecule?
Answer: 19-88%

Question: What about the “CD45 and αSMA expression, flow cytometry” value ([7]; mitral VEC clone E10, 1 ng/ml TGFβ1, 96 hours) of the same molecule?
Answer: strong induction

Question: What about the “CD45, flow cytometry” value ([7]; seven mitral VEC clones, 4 day exposure to TGFβ1) of the same molecule?
Answer: significantly increased

Question: And the “CD45 or αSMA expression in CAEC, flow cytometry” value [8]?
Answer: did not express

B1: CAT-152: fully human TGF-beta2 neutralizing antibody (antibody, chains of the INN, looked up, V domains shown)
VH: EVQLVESGGGVVQPGRSLRLSCAASGFTFSSYGMHWVRQAPGKGLEWVAVIWYDGSNKYYADSVKGRFTISRDNSKNTLYLQMDSLRAEDTAVYYCGRTLESSLWGQGTLVTVSS
VL: SSELTQDPAVSVALGQTVRITCQGDSLRSYYASWYQQKPGQAPVLVIYGKNNRPSGIPDRFSGSSSGNTASLTITGAQAEDEADYYCNSRDSSSTHRGVFGGGTKLTVL
Question: With B1 as the molecule, how does the “affinity for TGF-beta2” value [9] read?
Answer: high affinity

Question: What about the “affinity for TGF-beta3” value [10] of the same molecule?
Answer: lower affinity

Question: What about the “scarring after glaucoma surgery” value [11] of the same molecule?
Answer: capable of inhibiting

Question: What about the scar formation [12] of the same molecule?
Answer: possible effects
